According to patent publication US20260232825A1, “LINKER-DRUG MOLECULE AND ANTIBODY DRUG CONJUGATE, PREPARATION METHOD THEREFOR AND USE THEREOF” (SHANGHAI ESCUGEN BIOTECHNOLOGY CO., LTD., priority 2023, published 2026):
Read-outs that look alike come from different tables or passages of the source.

Key:
[1] = test system: B16F10-hClaudin18.2 cells; assay: Immunogenic cell death of B16F10-hClaudin18.2 cells (Calreticulin/PI FACS); format: cell-based; conditions: small molecular drug load 10 nM, 48 hours
Procedure: The B16F10-hClaudin18.2 cells were resuscitated and cultured in a medium of DMEM (Thermo, cat #: 10569044)^+10% FBS (Thermo, Cat #: 10099-141C)+0.5 μg/mL Puromycin to subject to adherent culture at 37° C. in 5% CO2 incubator. When the cell confluence was greater than 80%, the cells were passaged at a ratio of 1:10 to 1:20 every 3-4 days.
When the cells grew to a confluence of about 80%, the cells were digested by a digestive solution of recombinant enzyme (TrypLE™ Express Enzyme, Thermo, cat #: 12605028). Then the cells were resuspended with DMEM+10% FBS, and an appropriate volume was taken for counting. The cell density was adjusted to 1×10^4 cells/mL, and inoculated into 96-well cell plate at 100 μL/well to culture overnight at 37° C. in 5% CO2 incubator. The next day, the ADC drug was diluted with DMEM+10% FBS medium to a final concentration of 750 nM, the small molecule toxin Exatecan was diluted to a final concentration of 10 nM, and sample concentration of 0 was set as blank control. The diluted samples were respectively added to 96-well cell culture plate containing cells at 100 μL/well to incubate at 37° C. in 5% CO2 incubator for 48 hours. […]

[2] = test system: HEK293-hClaudin18.2 cells; assay: In vitro cell killing activity, HEK293-hClaudin18.2 cell line (AlamarBlue); format: cell-based
Procedure: HEK293-hClaudin18.2 cells were cultured in DMEM medium containing 10% FBS, supplemented with 250 μg/mL G418 to subject to adherent culture at 37° C. in 5% CO2 incubator. When the cell confluence was greater than 80%, the cells were passaged at a ratio of 1:20 to 1:40 every 3 days.
HEK293-hClaudin18.2 cells were digested by a digestive solution of recombinant enzyme (TrypLE™ Express Enzyme). After counting, an appropriate amount of cells were taken to resuspend with DMEM+10% FBS. The cell density was adjusted to 2×10^4 cells/mL, inoculating into 96-well cell culture plate at 100 μL/well. The cells were cultured overnight at 37° C. in 5% CO2 incubator. The next day, 9D1 ADC and small molecular toxin were diluted 10 times in a series from 1000 nM (final concentration, 500 nM) with a total of 7-8 concentration points, simultaneously setting a negative control with a sample concentration of 0, and a blank control containing only same volume (200 μL/well) of medium without cells. The diluted sample was added to 96-well cell culture plate containing cells at 100 μL/well (two duplicated wells), then incubating at 37° C. in 5% CO2 incubator for 72 hours. The cell viability was detected by the AlamarBlue detection method mentioned above, then processing data to calculate the IC50 values, and the results are shown in Table 5 below.

NUGC4-hClaudin18.2 cells = assay: In vitro tumor cell killing activity, NUGC4-hClaudin18.2 cell line (CCK-8); format: cell-based; conditions: Homo sapiens, 120 h, read-out: IC50 values (nM)
Procedure: When the cell confluence was greater than 80%, the cells were passaged at a ratio of 1:3 to 1:10 every 3-4 days.
NUGC4-hClaudin18.2 cells were digested by a digestive solution of recombinant enzyme (TrypLE™ Express Enzyme). […] The cell density was adjusted to 3×10^4 cells/mL, inoculating into 96-well cell culture plate at 100 μL/well. The cells were cultured overnight at 37° C. in 5% CO2 incubator. The next day, 9D1 ADC and small molecular toxin were diluted 5 times in a series from 1000 nM (final concentration, 500 nM) with a total of 7-8 concentration points, simultaneously setting a negative control with a sample concentration of 0, and a blank control containing only medium without cells. The diluted sample was added to 96-well cell culture plate containing cells at 100 μL/well (two duplicated wells), then incubating at 37° C. in 5% CO2 incubator for 120 hours. 20 μL of CCK-8 detection reagent (Dongren Chemical, CAS #CK04) was added to each well, incubating at 37° C. for 3-4 hours. The OD values of each well in the ELISA plate were measured at a wavelength of 450 nm and a reference wavelength of 630 nm on a multifunctional enzyme-linked immunosorbent assay (ELISA) reader, for each well, OD value=0D450 nm−OD630 nm. The cell viability of the negative control was set to 100%, and the cell viability (%) of the experimental wells was calculated according to the following formula. […]

MC38-hClaudin18.2 cells = assay: In vitro tumor cell killing activity, MC38-hClaudin18.2 cell line (AlamarBlue); format: cell-based, mouse
Procedure: 9D1 antibody-drug conjugates prepared in the previous Experimental Examples and Comparative Examples were used for performing in vitro killing test on MC38 cell lines stably expressing human Claudin18.2. MC38-hClaudin18.2 cells were inoculated into a 96-well cell culture plate at 3000 cells/well, adding gradient diluted 9D1 ADCs next day to culture for 48-72 hours. The fluorescence values of each experimental well were detected by AlamarBlue reagent (ThermoFisher, item number DAL1100), and the cell viability was calculated.
When the cell confluence was greater than 80%, the cells were passaged at a ratio of 1:10 to 1:20 every 3 days.
MC38-hClaudin18.2 cells were digested by a digestive solution of recombinant enzyme (TrypLE™ Express Enzyme). […] The cell density was adjusted to 3×10^4 cells/mL, inoculating into 96-well cell culture plate at 100 μL/well. The cells were cultured overnight at 37° C. in 5% C02 incubator. The next day, the test drug was diluted 10 times in a series with a total of 7-8 concentration points, simultaneously setting a blank control with a sample concentration of 0. The diluted sample was added to 96-well cell culture plate containing cells at 100 μL/well, then incubating at 37° C. in 5% CO2 incubator for 48-72 hours. 20 μL of AlamarBlue detection reagent was added to each well, incubating at 37° C. for 4-6 hours, the fluorescence signal intensity was detected on a multifunctional enzyme-linked immunosorbent assay (ELISA) instrument with an excitation wavelength of 560 nm and an emission wavelength of 590 nm.
The cell viability of the blank control was set to 100%, and the cell viability (%) of the experimental well was calculated by the following formula: […]
The detected average cell viability was takedn as the y-axis, a sigmoid dose response (Variable Slope) method (GraphPad Prism software, GraphPad Software, San Diego, California) was used for nonlinear regression to obtain the inhibitory effect curves of cell proliferation, and the corresponding IC50 values (half maximum inhibition concentration) were calculated. […]

[3] = test system: MC38 hClaudin18.2 tumor (high expression of p-gp); assay: Pharmacodynamics in p-gp mediated drug-resistant tumor bearing mouse model; format: in vivo; conditions: in words; ADC 10 mg/kg i.p. QW × 2, Tariquidar p.o. QD × 10
Procedure: Modeling and administration of tumor bearing mice: BALB/c Nude mice (female, 5-6 week old) were subcutaneously inoculated with MC38 hClaudin18.2 cells (1×10^6 cells in […]) on the ventral side. When the tumor volume increased to about 120 mm^3, the mice were randomly divided into groups and administered according to Table 10. The tumor and body weight were measured twice a week to calculate the tumor volumes (TV, mm^3) and plot the tumor growth curves. TV (mm^3)=(L×W^2)/2, wherein L represents tumor length, and W represents tumor width. GraphPad Prism software (GraphPad Software, San Diego, California) and XY mode were selected to plot the tumor growth curves and weight curves of mice, and the tumor volumes and weights were represented as mean±standard error.

Row | SMILES | ratio of Calreticulin(+)/PI(−) cells [1] | IC50 ([2]; 72 h, read-out: IC50 values (nM), HEK293-hClaudin18.2 cells, 72 hours, AlamarBlue) [nM] | IC50 ([2]; read-out: IC50 values, HEK293-hClaudin18.2 cells, 72 hours, AlamarBlue) [nM] | IC50 (NUGC4-hClaudin18.2 cells) [nM] | IC50 (MC38-hClaudin18.2 cells; Mus musculus, read-out: IC50 values (nM), MC38-hClaudin18.2 cells, 48-72 hours, AlamarBlue) [nM] | IC50 (MC38-hClaudin18.2 cells; read-out: IC50 values, MC38-hClaudin18.2 cells, 48-72 hours, AlamarBlue) [nM] | tumor inhibitory effect [3]
1 | CC[C@@]1(O)C(=O)OCc2c1cc1n(c2=O)Cc2c-1nc1cc(F)c(C)c3c1c2[C@@H](NC(=O)CO)CC3 [Dxd] | significantly raised | – | – | – | – | – | –
2 | CC[C@@]1(O)C(=O)OCc2c1cc1n(c2=O)Cc2c-1nc1cc(F)c(C)c3c1c2[C@@H](N)CC3 [Exatecan] | significantly raised | 0.51 | 0.508 | 2.01 | 4.1 | 4.1 | –
3 | COc1cc2c(cc1OC)CN(CCc1ccc(NC(=O)c3cc(OC)c(OC)cc3NC(=O)c3cnc4ccccc4c3)cc1)CC2 [Tariquidar] | – | – | – | – | – | – | has no tumor inhibitory effect
